Reference: PMC10413337 (RSC Advances, 2023)

Key:
[1] = test system: hepatic carcinoma HepG-2; assay: MTT cytotoxicity evaluation, HepG-2; assay type: cell-based; conditions: Homo sapiens, HepG2, read-out: IC50 (μM ± SD) HepG-2
[2] = test system: normal lung fibroblast WI-38; assay: MTT cytotoxicity evaluation, normal WI-38; assay type: cell-based; conditions: Homo sapiens, WI-38, read-out: IC50 (μM ± SD) WI-38
[3] = test system: colon carcinoma Caco2; assay: MTT cytotoxicity evaluation, Caco2; assay type: cell-based; conditions: Homo sapiens, Caco-2, read-out: IC50 (μM ± SD) Caco2
[4] = test system: breast MCF-7; assay: MTT cytotoxicity evaluation, MCF-7; conditions: for IC50: Homo sapiens, MCF7, read-out: IC50 (μM ± SD) MCF-7
[5] = test system: HepG-2, Caco2, and MCF-7; assay: MTT cytotoxicity, statements over the three cancer cell lines; assay type: cell-based, human; conditions: 9c versus 3

Compound	IC50 [1]	IC50 [2]	IC50 [3]	IC50 [4]	improvement of the cytotoxic effect, times ([4]; thiosemicarbazone 3 versus acetyl derivative 1, MCF-7)	drop in cytotoxicity, times [5]
CC(=O)c1nn(-c2ccc(S(N)(=O)=O)cc2)c(=N)s1 [Compound 1, 5-acetyl-3-N-(4-sulfamoylphenyl)-2-imino-1,3,4-thiadiazoline]	59.6 ± 3.4 µM	91.5 ± 4.7 µM	11.1 ± 0.6 µM	14.9 ± 0.7 µM	–	–
CC(=NNC(N)=S)c1nn(-c2ccc(S(N)(=O)=O)cc2)c(=N)s1 [Compound 3, 2-(1-(5-imino-4-(4-sulfamoylphenyl)-4,5-dihydro-1,3,4-thiadiazol-2-yl)ethylidene)hydrazine-1-carbothioamide]	4.57 ± 0.3 µM	44.4 ± 2.3 µM	14.9 ± 0.7 µM	6.38 ± 0.3 µM	2.5 times	–
CC(=NNc1nc(-c2ccccc2)cs1)c1nn(-c2ccc(S(N)(=O)=O)cc2)c(=N)s1 [Compound 4, 4-(2-Imino-5-(1-(2-(4-phenylthiazol-2-yl)hydrazineylidene)ethyl)-1,3,4-thiadiazol-3(2H)yl)benzenesulfonamide]	0.5 ± 0.04 µM	21.4 ± 1.1 µM	3.19 ± 0.2 µM	3.52 ± 0.2 µM	–	–
CC(=O)c1sc(NN=C(C)c2nn(-c3ccc(S(N)(=O)=O)cc3)c(=N)s2)nc1C [Compound 6, 4-(5-(1-(2-(5-Acetyl-4-methylthiazol-2-yl)hydrazineylidene)ethyl)-2-imino-1,3,4-thiadiazol-3(2H)-yl)benzenesulfonamide]	32.9 ± 1.9 µM	110 ± 5.7 µM	33.8 ± 1.7 µM	21.2 ± 1.2 µM	–	–
CCOC(=O)c1sc(NN=C(C)c2nn(-c3ccc(S(N)(=O)=O)cc3)c(=N)s2)nc1C [Compound 7, Ethyl-2-(2-(1-(5-imino-4-(4-sulfamoylphenyl)-4,5-dihydro-1,3,4-thiadiazol-2-yl)ethylidene)hydrazineyl)-4-methylthiazole-5-carboxylate]	19.6 ± 1.1 µM	42.9 ± 2.2 µM	7.39 ± 0.4 µM	12.6 ± 0.6 µM	–	–
CC(=NNC1=NC(=O)CS1)c1nn(-c2ccc(S(N)(=O)=O)cc2)c(=N)s1 [Compound 8, 4-(2-Imino-5-(1-(2-(4-oxo-4,5-dihydrothiazol-2-yl)hydrazineylidene)ethyl)-1,3,4-thiadiazol-3(2H)-yl)benzenesulfonamide]	11.3 ± 0.6 µM	22.9 ± 1.2 µM	5.31 ± 0.3 µM	27.2 ± 1.2 µM	–	–
CNC(=S)NN=C(C)c1nn(-c2ccc(S(N)(=O)=O)cc2)c(=N)s1 [Compound 9a, 2-(1-(5-Imino-4-(4-sulfamoylphenyl)-4,5-dihydro-1,3,4-thiadiazol-2-yl)ethylidene)-N-methylhydrazine-1-carbothioamide]	0.53 ± 0.01 µM	18.4 ± 1.7 µM	1.01 ± 0.1 µM	1.12 ± 0.1 µM	–	–
C=CCNC(=S)NN=C(C)c1nn(-c2ccc(S(N)(=O)=O)cc2)c(=N)s1 [Compound 9b, N-Allyl-2-(1-(5-imino-4-(4-sulfamoylphenyl)-4,5-di-hydro-1,3,4-thiadiazol-2-yl)ethylidene)hydrazine-1-carbothioamide]	149 ± 8.4 µM	92.9 ± 4.8 µM	74.8 ± 3.7 µM	73 ± 3.3 µM	–	–
CC(=NNC(=S)Nc1ccccc1)c1nn(-c2ccc(S(N)(=O)=O)cc2)c(=N)s1 [Compound 9c, 2-(1-(5-imino-4-(4-sulfamoylphenyl)-4,5-di-hydro-1,3,4-thiadiazol-2-yl)ethylidene)-N-phenylhydrazine-1-carbothioamide]	37.1 ± 2.1 µM	28.5 ± 1.5 µM	34.7 ± 1.7 µM	21.1 ± 0.9 µM	–	10 times
CC(=NNC(=S)Nc1ccc(Cl)cc1)c1nn(-c2ccc(S(N)(=O)=O)cc2)c(=N)s1 [Compound 9d, N-(4-Chlorophenyl)-2-(1-(5-imino-4-(4-sulfamoylphenyl)-4,5-dihydro-1,3,4-thiadiazol-2-yl)-ethylidene)hydrazine-1-carbothioamide]	153 ± 8.6 µM	60.7 ± 3.1 µM	98.7 ± 4.9 µM	42.6 ± 1.8 µM	–	–
C=CCn1c(-c2ccccc2)csc1=NN=C(C)c1nn(-c2ccc(S(N)(=O)=O)cc2)c(=N)s1 [Compound 12b, 4-(5-(1-((3-Allyl-4-phenylthiazol-2(3H)-ylidene)hydrazono)ethyl)-2-imino-1,3,4-thiadiazol-3(2H)-yl)benzenesulfonamide]	17.5 ± 1.5 µM	63.5 ± 3.9 µM	25.5 ± 1.3 µM	15.1 ± 0.7 µM	–	–
CC(=NN=c1scc(-c2ccccc2)n1-c1ccc(Cl)cc1)c1nn(-c2ccc(S(N)(=O)=O)cc2)c(=N)s1 [Compound 12d, 4-(5-(1-((3-(4-Chlorophenyl)-4-phenylthiazol-2(3H)-ylidene)hydrazono)ethyl)-2-imino-1,3,4-thiadiazol-3(2H)-yl)benzenesulfonamide]	4.26 ± 0.2 µM	46.6 ± 2.4 µM	1.06 ± 0.1 µM	3.79 ± 0.2 µM	–	–
